Key:
[1] = target: T1, Aspergillus fumigatus Amadoriase I variant SS03 (Ser67Cys + Pro121Cys), SEQ ID NO: 4 (Aspergillus fumigatus, UniProt O42629, P121C/S67C); experiment: Steady-state kinetics of Amadoriase variant SS03 towards fructosyl-lysine (glucosone formation at 322 nm); format: biochemical; conditions: apparent, fructosyl-lysine 0.05 mM to 2 mM, 10 mM Tris HCl pH 7.4, 20 mM o-Phenylenediamine, three independent experiments
T1 construct: E. coli codon-optimised gene in bacterial (Novagen, pET-type) vector
Description: (§1) Enzymatic activity was followed by a continuous assay that detects glucosone formation over time from fructosyl-lysine at 322 nm. The 200 μl reaction mixture contained 10 mM Tris HCl pH 7.4, 20 mM o-Phenylenediamine, 2 mM fructosyl-lysine. After 1 minute of pre-incubation, the reaction was started adding 4.5 μg of enzyme, and the increase in absorbance at 322 nm (glucosone ε322=149.25 M^−1cm^−1) was monitored in a Spark10M (Tecan).
(§2) Apparent steady-state parameters for the enzymes over its natural substrate were determined by means of the assay described above, with fructosyl-lysine concentrations varied from 0.05 mM to 2 mM. Data points were obtained from three independent experiments. Kinetic parameters were calculated using a non-linear least-square fit of the data, and fitted with Eq. 1 (the Michaelis-Menten equation for hyperbolic substrate kinetics) using Hyperbola fit function of GraphPad Prism version 5.00 for Windows, GraphPad Software, La Jolla Calif. USA.
(§3) [formula] in which v, Vmax, S, and Km represent the steady state reaction rate, maximum reaction rate, substrate concentration, and Michaelis-Menten constant for the substrate, respectively.

[2] = target: T2, Aspergillus fumigatus Amadoriase I variant SS17 (Asp295Cys + Lys303Cys), SEQ ID NO: 6 (Aspergillus fumigatus, UniProt O42629, D295C/K303C); experiment: Steady-state kinetics of Amadoriase variant SS17 towards fructosyl-lysine (glucosone formation at 322 nm); format: biochemical; conditions: apparent, fructosyl-lysine 0.05 mM to 2 mM, 10 mM Tris HCl pH 7.4, 20 mM o-Phenylenediamine, three independent experiments
T2 construct: E. coli codon-optimised gene in bacterial (Novagen, pET-type) vector
Description: as §1, §2, §3

Q: How did the kcat [1] turn out when N[C@@H](CCCCNCC(=O)[C@@H](O)[C@H](O)[C@H](O)CO)C(=O)O [fructosyl-lysine] was run?
A: 21.90 ± 2.73 s⁻¹

Q: And the kcat/Km [1]?
A: 64.17 ± 25.5 s⁻¹ mM⁻¹

Q: And the kcat [2]?
A: 22.91 ± 2.12 s⁻¹

Q: And the kcat/Km [2]?
A: 33.34 ± 10.16 s⁻¹ mM⁻¹
